According to patent US20110028318A1, “HERBICIDAL COMPOUNDS BASED ON N-AZINYL-N'-PYRIDYLSULPHONYLUREAS” (Bayer CropScience AG, priority 2007, published 2011):

Key:
[1] = tested on: Stellaria media; experiment: Pre-emergence herbicidal activity, STEME; format: in vivo; conditions: 80 g/ha, WP formulation, scored visually after approximately 3 weeks vs untreated controls (100% = plants have died)
From the text: (§1) Seeds of monocotyledonous or dicotyledonous weed plants or crop plants are placed in sandy loam in wood fiber pots and covered with soil. The compounds according to the invention, which are formulated as wettable powders (WP) are then applied to the surface of the soil cover in the form of an aqueous suspension or emulsion with a water application rate of 600 I/ha (converted), with addition of 0.2% wetter. After the treatment, the pots are placed in the greenhouse and maintained under good growth conditions for the test plants. After approximately 3 weeks, the activity of the preparation is scored visually in comparison with untreated controls (herbicidal activity in percent (%): 100% activity=plants have died, 0% activity=like control plants).

[2] = tested on: Echinochloa crus-galli; experiment: Post-emergence herbicidal activity, ECHCG; format: in vivo; conditions: dosage rate 80 g/ha, scored visually after approx. 3 weeks vs untreated controls
Description: (§2) Seeds of monocotyledonous or dicotyledonous weed plants or crop plants are placed in sandy loam in wood fiber pots, covered with soil and grown in the greenhouse under good growth conditions. 2 to 3 weeks after sowing, the test plants are treated in the one-leaf stage. The compounds according to the invention, which are formulated as wettable powders (WP), are then sprayed onto the green plant parts in the form of an aqueous suspension or emulsion with a water application rate of 600 I/ha (converted) with addition of 0.2% of wetter. After the test plants have been left to stand in the greenhouse for approximately 3 weeks under optimal growth conditions, the activity of the preparation is scored visually in comparison with untreated controls (herbicidal activity in percent (%): 100% activity=plants have died, 0% activity=like control plants).

[3] = tested on: Pharbitis purpurea; experiment: Post-emergence herbicidal activity, PHBPU; format: in vivo, Pharbitis/Ipomoea purpurea; conditions: dosage rate 80 g/ha, scored visually after approx. 3 weeks vs untreated controls
Description: as §2

[4] = tested on: Amaranthus retroflexus; experiment: Post-emergence herbicidal activity, AMARE; format: in vivo; conditions: dosage rate 80 g/ha, scored visually after approx. 3 weeks vs untreated controls
Description: as §2

[5] = tested on: Alopecurus myosuroides; experiment: Post-emergence herbicidal activity, ALOMY; format: in vivo; conditions: dosage rate 80 g/ha, scored visually after approx. 3 weeks vs untreated controls
Description: as §2

[6] = tested on: Abutilon theophrasti; experiment: Post-emergence herbicidal activity, ABUTH; format: in vivo; conditions: dosage rate 80 g/ha, scored visually after approx. 3 weeks vs untreated controls
Description: as §2

[7] = tested on: Alopecurus myosuroides; experiment: Pre-emergence herbicidal activity, ALOMY; format: in vivo; conditions: 80 g/ha, WP formulation, scored visually after approximately 3 weeks vs untreated controls (100% = plants have died)
From the text: as §1

[8] = tested on: Viola tricolor; experiment: Post-emergence herbicidal activity, VIOTR; format: in vivo; conditions: dosage rate 80 g/ha, scored visually after approx. 3 weeks vs untreated controls
Description: as §2

[9] = tested on: Matricaria inodora; experiment: Pre-emergence herbicidal activity, MATIN; format: in vivo; conditions: 80 g/ha, WP formulation, scored visually after approximately 3 weeks vs untreated controls (100% = plants have died)
From the text: as §1

[10] = tested on: Stellaria media; experiment: Post-emergence herbicidal activity, STEME; format: in vivo; conditions: dosage rate 80 g/ha, scored visually after approx. 3 weeks vs untreated controls
Description: as §2

[11] = tested on: Lolium multiflorum; experiment: Post-emergence herbicidal activity, LOLMU; format: in vivo; conditions: dosage rate 80 g/ha, scored visually after approx. 3 weeks vs untreated controls
Description: as §2

COc1cc(SC)nc(NC(=O)NS(=O)(=O)c2ncccc2C2=NOCC2)n1 [Ia-4]
80%: herbicidal activity ALOMY [5] | herbicidal activity ABUTH [6] | herbicidal activity in percent, ALOMY [7] | herbicidal activity VIOTR [8]
100%: herbicidal activity PHBPU [3] | herbicidal activity AMARE [4]
90%: herbicidal activity in percent, STEME [1] | herbicidal activity ECHCG [2] | herbicidal activity in percent, MATIN [9] | herbicidal activity STEME [10]

COc1cc(Cl)nc(NC(=O)NS(=O)(=O)c2ncccc2C2=NOCC2)n1 [Ia-1, N-[(4-Chloro-6-methoxypyrimidin-2-yl)carbamoyl]-3-(4,5-dihydroisoxazol-3-yl)-pyridine-2-sulfonamide]
100%: herbicidal activity ECHCG [2] | herbicidal activity PHBPU [3]
80%: herbicidal activity ALOMY [5] | herbicidal activity VIOTR [8]
90%: herbicidal activity in percent, STEME [1] | herbicidal activity AMARE [4] | herbicidal activity LOLMU [11] | herbicidal activity ABUTH [6] | herbicidal activity in percent, ALOMY [7] | herbicidal activity in percent, MATIN [9] | herbicidal activity STEME [10]

COc1nc(C)nc(NC(=O)NS(=O)(=O)c2ncccc2C2=NOCC2)n1 [Ia-7]
80%: herbicidal activity ALOMY [5] | herbicidal activity ABUTH [6]
90%: herbicidal activity LOLMU [11]

CCC1CC(c2cccnc2S(=O)(=O)NC(=O)Nc2nc(Cl)cc(OC)n2)=NO1 (centres unmarked) [Ia-20]
80%: herbicidal activity ECHCG [2] | herbicidal activity AMARE [4] | herbicidal activity ALOMY [5] | herbicidal activity LOLMU [11] | herbicidal activity in percent, ALOMY [7] | herbicidal activity VIOTR [8] | herbicidal activity STEME [10]

CCCC1CC(c2cccnc2S(=O)(=O)NC(=O)Nc2nc(OC)cc(OC)n2)=NO1 (centres unmarked) [Ia-21]
80%: herbicidal activity in percent, STEME [1] | herbicidal activity ECHCG [2] | herbicidal activity PHBPU [3] | herbicidal activity AMARE [4] | herbicidal activity ALOMY [5] | herbicidal activity LOLMU [11] | herbicidal activity ABUTH [6] | herbicidal activity VIOTR [8] | herbicidal activity in percent, MATIN [9] | herbicidal activity STEME [10]

COc1cc(Cl)nc(NC(=O)NS(=O)(=O)c2ncccc2C2=NOC(C)(C)C2)n1 [Ia-14]
80%: herbicidal activity ECHCG [2] | herbicidal activity STEME [10]
90%: herbicidal activity AMARE [4] | herbicidal activity VIOTR [8]

CCCC1CC(c2cccnc2S(=O)(=O)NC(=O)Nc2nc(C)cc(OC)n2)=NO1 (centres unmarked) [Ia-17]
80%: herbicidal activity AMARE [4] | herbicidal activity ALOMY [5] | herbicidal activity LOLMU [11]
90%: herbicidal activity in percent, ALOMY [7]

Cc1cc(C)nc(NC(=O)NS(=O)(=O)c2ncccc2C2=NOCC2)n1 [Ia-3]
90%: herbicidal activity ECHCG [2] | herbicidal activity PHBPU [3] | herbicidal activity ABUTH [6] | herbicidal activity STEME [10]
80%: herbicidal activity in percent, STEME [1] | herbicidal activity ALOMY [5] | herbicidal activity LOLMU [11] | herbicidal activity in percent, ALOMY [7] | herbicidal activity VIOTR [8] | herbicidal activity in percent, MATIN [9]
100%: herbicidal activity AMARE [4]

COc1cc(OC)nc(NC(=O)NS(=O)(=O)c2ncccc2C2=NOCC2)n1 [Ia-2]
90%: herbicidal activity in percent, STEME [1] | herbicidal activity PHBPU [3] | herbicidal activity AMARE [4] | herbicidal activity LOLMU [11] | herbicidal activity in percent, ALOMY [7] | herbicidal activity VIOTR [8] | herbicidal activity in percent, MATIN [9] | herbicidal activity STEME [10]
100%: herbicidal activity ECHCG [2] | herbicidal activity ABUTH [6]
80%: herbicidal activity ALOMY [5]

CCC1CC(c2cccnc2S(=O)(=O)NC(=O)Nc2nc(C)cc(OC)n2)=NO1 (centres unmarked) [Ia-19]
80%: herbicidal activity in percent, STEME [1] | herbicidal activity ECHCG [2] | herbicidal activity PHBPU [3] | herbicidal activity AMARE [4] | herbicidal activity LOLMU [11] | herbicidal activity in percent, ALOMY [7] | herbicidal activity VIOTR [8] | herbicidal activity STEME [10]
90%: herbicidal activity ALOMY [5]

CCC1CC(c2cccnc2S(=O)(=O)NC(=O)Nc2nc(C)nc(OC)n2)=NO1 (centres unmarked) [Ia-18]
80%: herbicidal activity ECHCG [2]

COc1cc(OC)nc(NC(=O)NS(=O)(=O)c2ncccc2C2=NOC(C(C)C)C2)n1 (centres unmarked) [Ia-10]
80%: herbicidal activity in percent, STEME [1] | herbicidal activity PHBPU [3] | herbicidal activity in percent, ALOMY [7] | herbicidal activity in percent, MATIN [9]
100%: herbicidal activity ECHCG [2] | herbicidal activity AMARE [4]
90%: herbicidal activity ALOMY [5] | herbicidal activity LOLMU [11] | herbicidal activity ABUTH [6] | herbicidal activity VIOTR [8] | herbicidal activity STEME [10]

COc1cc(Cl)nc(NC(=O)NS(=O)(=O)c2ncccc2C2=NOC(C)C2)n1 (centres unmarked) [Ia-16]
100%: herbicidal activity STEME [10]
80%: herbicidal activity ECHCG [2] | herbicidal activity ALOMY [5] | herbicidal activity in percent, ALOMY [7] | herbicidal activity VIOTR [8] | herbicidal activity in percent, MATIN [9]
90%: herbicidal activity AMARE [4] | herbicidal activity LOLMU [11]

COc1cc(C)nc(NC(=O)NS(=O)(=O)c2ncccc2C2=NOCC2)n1 [Ia-9]
90%: herbicidal activity PHBPU [3] | herbicidal activity LOLMU [11] | herbicidal activity STEME [10]
80%: herbicidal activity in percent, STEME [1] | herbicidal activity ALOMY [5] | herbicidal activity ABUTH [6]

COc1cc(C)nc(NC(=O)NS(=O)(=O)c2ncccc2C2=NOC(C)C2)n1 (centres unmarked) [Ia-15]
80%: herbicidal activity ECHCG [2] | herbicidal activity LOLMU [11] | herbicidal activity in percent, ALOMY [7] | herbicidal activity VIOTR [8] | herbicidal activity in percent, MATIN [9] | herbicidal activity STEME [10]
90%: herbicidal activity AMARE [4] | herbicidal activity ALOMY [5]

CCC1CC(c2cccnc2S(=O)(=O)NC(=O)Nc2nc(OC)cc(OC)n2)=NO1 (centres unmarked) [Ia-24]
90%: herbicidal activity in percent, STEME [1] | herbicidal activity PHBPU [3] | herbicidal activity in percent, ALOMY [7] | herbicidal activity in percent, MATIN [9] | herbicidal activity STEME [10]
100%: herbicidal activity ECHCG [2]
80%: herbicidal activity AMARE [4] | herbicidal activity ABUTH [6]

COc1cc(C)nc(NC(=O)NS(=O)(=O)c2ncccc2C2=NOC(C(C)C)C2)n1 (centres unmarked) [Ia-22]
100%: herbicidal activity in percent, STEME [1]
80%: herbicidal activity PHBPU [3] | herbicidal activity ALOMY [5] | herbicidal activity LOLMU [11] | herbicidal activity ABUTH [6] | herbicidal activity VIOTR [8]

CN(C)c1nc(NC(=O)NS(=O)(=O)c2ncccc2C2=NOCC2)nc(OCC(F)(F)F)n1 [Ia-8]
90%: herbicidal activity LOLMU [11]
80%: herbicidal activity ECHCG [2] | herbicidal activity ABUTH [6]

CCCC1CC(c2cccnc2S(=O)(=O)NC(=O)Nc2nc(C)nc(OC)n2)=NO1 (centres unmarked) [Ia-23]
80%: herbicidal activity in percent, MATIN [9]

COc1nc(NC(=O)NS(=O)(=O)c2ncccc2C2=NOCC2)nc(OC)n1 [Ia-6]
90%: herbicidal activity LOLMU [11]
80%: herbicidal activity AMARE [4]
